Assay [1] in a line: lowering of blood pressure when injected peripherally. Format: in vivo, mammals. Particulars: e.g. intravenously.
The nature of assay [2]: biopotency of CRF analog (test not specified).
Assay [3] has as its system secretion of ACTH and β-END-LI. Kind of assay: inhibition of the secretion of ACTH and β-END-LI by CRF antagonists. Format: in vivo. Particulars: injected peripherally.
Another assay relates to rats. To be noted: administered into the ventricles; cited from earlier work.
The conditions of assay [4]: CRF in the brain; cited from earlier work.
Assay [5] concerns secretion of ACTH and β-END-LI. As to the kind of experiment: in vivo stimulation of the secretion of ACTH and β-END-LI. As for the experimental part:
(§1) The synthetic CRF agonist peptides [Ala^20 ]-oCRF and [Ala^39 ]-oCRF are examined for their effects on the secretion of ACTH and β-endorphin in vitro and also in vivo. The potency of synthetic oCRF analogs to stimulate the secretion of ACTH and β-endorphin by cultured rat pituitary cells is measured using the procedure as generally set forth in Endocrinology, 91, 562 (1972) and compared against synthetic oCRF. [Ala^20 ]-oCRF is considered to be about 2 to 4 times as potent as the native hormone. […] In vivo testing which can be carried out using the general procedure set forth in C.

In assay [6] the test system is cultured rat pituitary cells. Format: cell-based. As for the experimental part: as §1
For assay [7], the system named is cultured rat pituitary cells. Particulars: background statement; cited from earlier work.
The test system of assay [8] is secretion of ACTH and β-END-LI. To be noted: background statement; cited from earlier work.
For assay [9] the following is noted: background statement; cited from earlier work.

Consider nine compounds from patent publication US5439885A, “CRF analogs” (The Salk Institute for Biological Studies, priority 1993, dated 1995).

“Also recorded” adds a separate entry of the source. Where two headings read alike, the source gives them in different places. Where a SMILES comes first, the peptide text is derived from it. Where no end group is shown, it is not given here. [ ]: non-standard residue; d: D form. Nle = CCCC[C@H](N)C(=O)O

Turning to `CC[C@H](C)[C@H](NC(=O)[C@@H](NC(=O)[C@H](CCC(=O)O)NC(=O)[C@H](CCSC)NC(=O)[C@H](CC(C)C)NC(=O)[C@H](CCCCN)NC(=O)[C@H](CCCNC(=N)N)NC(=O)[C@H](CC(N)=O)NC(=O)[C@H](CO)NC(=O)[C@H](Cc1c[nH]cn1)NC(=O)[C@H](C)NC(=O)[C@H](CCC(N)=O)NC(=O)[C@H](CCC(N)=O)NC(=O)[C@H](C)NC(=O)[C@H](CC(C)C)NC(=O)[C@H](CCC(N)=O)NC(=O)[C@H](CCC(=O)O)NC(=O)[C@H](C)NC(=O)[C@H](CCCNC(=N)N)NC(=O)[C@H](C)NC(=O)[C@H](CCSC)NC(=O)[C@H](C)NC(=O)[C@H](CC(C)C)NC(=O)[C@@H](NC(=O)[C@H](CCC(=O)O)NC(=O)[C@H](CCCNC(=N)N)NC(=O)[C@H](CC(C)C)NC(=O)[C@H](CC(C)C)NC(=O)[C@H](Cc1c[nH]cn1)NC(=O)[C@@H](Cc1ccccc1)NC(=O)[C@@H](NC(=O)[C@H](CC(C)C)NC(=O)[C@H](CC(=O)O)NC(=O)[C@H](CC(C)C)NC(=O)[C@H](CO)NC(=O)[C@@H](NC(=O)[C@@H]1CCCN1C(=O)[C@@H]1CCCN1C(=O)[C@@H](N)CCC(=O)O)[C@@H](C)CC)[C@@H](C)O)C(C)C)[C@@H](C)CC)C(N)=O` [IV] (H-EPPISLDLT[dF]HLLREVLAMARAEQLAQQAHSNRKLMEII-NH2), the “lowering of blood pressure” value in assay [1] is on record as “significant lowering of blood pressure”. In assay [2], the biopotency entry was “biopotent”.
`CCCC[C@H](NC(=O)[C@H](C)NC(=O)[C@H](CC(C)C)NC(=O)[C@@H](NC(=O)[C@H](CCC(=O)O)NC(=O)[C@H](CCCNC(=N)N)NC(=O)[C@H](CC(C)C)NC(=O)[C@H](CC(C)C)NC(=O)[C@H](Cc1c[nH]cn1)NC(=O)[C@H](N)Cc1ccccc1)C(C)C)C(=O)N[C@@H](C)C(=O)N[C@@H](CCCNC(=N)N)C(=O)N[C@@H](C)C(=O)N[C@@H](CCC(=O)O)C(=O)N[C@@H](CCC(N)=O)C(=O)N[C@@H](CC(C)C)C(=O)N[C@@H](C)C(=O)N[C@@H](CCC(N)=O)C(=O)N[C@@H](CCC(N)=O)C(=O)N[C@@H](C)C(=O)N[C@@H](Cc1c[nH]cn1)C(=O)N[C@@H](CO)C(=O)N[C@@H](CC(N)=O)C(=O)N[C@@H](CCCNC(=N)N)C(=O)N[C@@H](CCCNC(=N)N)C(=O)N[C@@H](CC(C)C)C(=O)N[C@@H](CCCC)C(=O)N[C@@H](C)C(=O)N[C@H](C(=O)N[C@H](C(N)=O)[C@@H](C)CC)[C@@H](C)CC` [IX] (H-[dF]HLLREVLA[Nle]ARAEQLAQQAHSNRRL[Nle]AII-NH2): in assay [3], the “inhibition of the secretion of ACTH and β-END-LI” value was “inhibits the secretion of ACTH and β-END-LI”. In addition, in assay [2], the biopotency entry is “biopotent”.
Consider “CRF: physiologic corticotropin releasing factor, a hentetracontapeptide; species form not specified at the place (SEEPPISLDLTFHLLREVLEMARAEQLAQQAHSNRKLMEII-NH2; ends and bridges not checked; UniProt P06850 154-194, looked up)”, for which, in the assay on rats, the activity result is listed as “increases activity” and the learning performance result is “improves learning performance”. For the same compound, the respiratory rate result in assay [4] was “appears to increase respiratory rate”.
Turning to “SEEPPISLDLT[dF]HLLREVLA[Nle]ARAEQLAQQAHSNRRL[Nle]AII-NH2 [VIA]”, the “stimulation of the secretion of ACTH and β-END-LI” value in assay [5] is “stimulates the secretion of ACTH and β-END-LI”. In addition, in [1], the “lowering of blood pressure” value is “significant lowering of blood pressure”. In addition, in assay [2], the biopotency entry was “biopotent”.
Consider “SQEPPISLDLTFHLLREVLAMTKADQLAQQAHSNRKLLDIA-NH2 [Example I]”, for which the “potency to stimulate the secretion of ACTH and β-endorphin, times as potent as the native hormone” value in [6] is listed as 2-4 times.
For “SQEPPISLDLTFHLLREVLEMTKADQLAQQAHSNRKLLAIA-NH2 [II]”, in [6], the “increase in biopotency in vitro over the native hormone” value is listed as around 85%.
Regarding “Ser-Gln-Glu-Pro-Pro-Ile-Ser-Leu-Asp-Leu-Thr-Phe-His-Leu-Leu-Arg-Glu-Val-Leu-Glu-Met-Thr-Lys-Ala-Asp-Gln-Leu-Ala-Gln-Gln-Ala-His-Ser-Asn-Arg-Lys-Leu-Leu-Asp-Ile-Ala (SQEPPISLDLTFHLLREVLEMTKADQLAQQAHSNRKLLDIA) [oCRF]”, the “stimulation of ACTH and β-endorphin-like activities (β-END-LI) in vitro” value (from here on “stimulation … in vitro”) in assay [7] was “stimulate ACTH and β-endorphin-like activities”. Further, the “stimulation of ACTH and β-endorphin-like activities (β-END-LI) in vivo” value (“stimulation … in vivo” for short) in assay [8] was “stimulates the secretion of ACTH and β-endorphin; also recorded: stimulate ACTH and β-endorphin-like activities”. Further, the “lowering of blood pressure” value in [9] is reported as “lowers blood pressure; also recorded: substantially lower blood pressure”.
Regarding “Ser-Gln-Glu-Pro-Pro-Ile-Ser-Leu-Asp-Leu-Thr-phe-His-Leu-Leu-Arg-Glu-Met-Leu-Glu-Met-Ala-Lys-Ala-Glu-Gln-Glu-Ala-Glu-Gln-Ala-Ala-Leu-Asn-Arg-Leu-Leu-Leu-Glu-Glu-Ala (SQEPPISLDLTFHLLREMLEMAKAEQEAEQAALNRLLLEEA) [AHC]”, the “stimulation … in vitro” value in [7] was “stimulate ACTH and β-endorphin-like activities”. Besides, in [8], the “stimulation … in vivo” value is “stimulate ACTH and β-endorphin-like activities”. For the same compound, in [9], the “lowering of blood pressure” value was “substantially lower blood pressure”.
Take “Ser-Glu-Glu-Pro-Pro-Ile-Ser-Leu-Asp-Leu-Thr-phe-His-Leu-Leu-Arg-Glu-Val-Leu-Glu-Met-Ala-Arg-Ala-Glu-Gln-Leu-Ala-Gln-Gln-Ala-His-Ser-Asn-Arg-Lys-Leu-Met-Glu-Ile-Ile (SEEPPISLDLTFHLLREVLEMARAEQLAQQAHSNRKLMEII) [rCRF]”: the “stimulation … in vitro” value in assay [7] was “stimulate ACTH and β-endorphin-like activities”. In assay [8], the “stimulation … in vivo” value was “stimulate ACTH and β-endorphin-like activities”. Moreover, the “lowering of blood pressure” value in assay [9] is on record as “substantially lower blood pressure”.
